Consider 5 compounds from patent US20240285571A1, “METHODS OF TREATING BONE INFECTIONS” (MICROBION CORPORATION, priority 2020, published 2024).

Test [1] relates to Achromobacter spp. Briefly: MIC against CF isolates (Example 7, Table 18). Type of test: cell-based. The settings on record: strain AX4, A. xylosoxidans.
For test [2], the system named is Clostridium sphenoides. Put plainly: MIC of baseline clinical isolates (Example 8). The class given is cell-based. As to conditions: Clostridium sphenoides baseline isolates (N′ = 1), central laboratory, mITT. In outline:
(§1)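 Deep and superficial specimens from the index site (infected bone, tissue adjacent to implants, deep-site swabs, wound closure or sinus tract) were collected on Day 1. Collection was repeated at each later surgical procedure there.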

The subject of test [3] is Staphylococcus haemolyticus. Briefly: MIC of baseline clinical isolates (Example 8). Type of test: cell-based. As to conditions: Staphylococcus haemolyticus baseline isolates (N′ = 1), central laboratory, mITT. In short, it runs like this: as §1
Test [4] deals with non-speciated Anaerococcus. Briefly: MIC of baseline clinical isolates (Example 8). The class given is cell-based. The settings on record: Anaerococcus non-speciated baseline isolates (N′ = 1), central laboratory, mITT. In short, it runs like this:
as §1

For test [5], the system named is Staphylococcus pasteuri. Put plainly: MIC of baseline clinical isolates (Example 8). Type of test: cell-based. As to conditions: Staphylococcus pasteuri baseline isolates (N′ = 1), central laboratory, mITT. In short, it runs like this: as §1
Test [6] has as its system Anaerococcus murdochii. Put plainly: MIC of baseline clinical isolates (Example 8). Type of test: cell-based. As to conditions: Anaerococcus murdochii baseline isolates (N′ = 1), central laboratory, mITT. In short, it runs like this:
as §1

For test [7], the system named is Peptoniphilus gorbachii. Put plainly: MIC of baseline clinical isolates (Example 8). The class given is cell-based. As to conditions: Peptoniphilus gorbachii baseline isolates (N′ = 1), central laboratory, mITT. In outline: as §1
Test [8] relates to Cutibacterium [Propionibacterium] acnes. Briefly: MIC of baseline clinical isolates (Example 8). Type of test: cell-based. As to conditions: Cutibacterium (Proprionibacterium) acnes baseline isolates (N′ = 3), central laboratory, mITT. In short, it runs like this:
as §1

Test [9] concerns S. aureus (MRSA, MSSA). Put plainly: MIC of baseline clinical isolates (Example 8). Type of test: cell-based. As to conditions: Staphylococcus aureus, MRSA baseline isolates (N′ = 4), central laboratory, mITT. In short, it runs like this:
as §1

In test [10] the test system is F. magna. Put plainly: MIC of baseline clinical isolates (Example 8). The class given is cell-based. As to conditions: Finegoldia magna baseline isolates (N′ = 4), central laboratory, mITT. In short, it runs like this:
as §1

In test [11] the test system is Staphylococcus hominis. Briefly: MIC of baseline clinical isolates (Example 8). The settings on record: Staphylococcus hominis baseline isolates (N′ = 1), central laboratory, mITT. Type of test: cell-based. In short, it runs like this: as §1
Test [12] concerns Staphylococcus lugdunensis. Put plainly: MIC of baseline clinical isolates (Example 8). Type of test: cell-based. The settings on record: Staphylococcus lugdunensis baseline isolates (N′ = 3), central laboratory, mITT. In outline:
as §1

In test [13] the test system is Staphylococcus arlettae. Briefly: MIC of baseline clinical isolates (Example 8). The class given is cell-based. The settings on record: Staphylococcus arlettae baseline isolates (N′ = 1), central laboratory, mITT. In outline:
as §1

Test [14] concerns anaerobes. Briefly: MIC summary, anaerobes (Example 5). Type of test: cell-based, Bacteroides fragilis and Clostridium difficile. As to conditions: read-out: MIC values across isolates. How it is done: Test and Comparator Agents: The test agents were stored at room temperature until assayed. All test agents were suspended and diluted in 100% dimethylsulfoxide (DMSO), and were ultimately tested at a final concentration of 0.06-64 μg/mL. The stock solutions were allowed to stand for at least 1 hr prior to use to auto-sterilize.
The susceptibility of anaerobic bacteria was determined by agar dilution using Brucella Agar (BD/BBL; Lot No. 5237692) supplemented with 5 μg/mL hemin (Sigma, St. Louis, MO; Lot No. 108K1088), 1 μg/mL Vitamin K1 and 5% (v/v) laked sheep blood (Cleveland Scientific, Bath, OH; Lot No. 322799).
Agar Dilution MIC Testing (Anaerobic Bacteria and Gonococci): MIC values for anaerobic bacteria were determined using a reference agar dilution method as described by CLSI (6). Organisms were grown at 35° C. in the Bactron II Anaerobic Chamber (Shel Lab, Cornelius, OR) for approximately 48 hr prior to the assay. Drug dilutions and drug-supplemented agar plates were prepared manually per CLSI (6). The plates were allowed to stand at room temperature for 1 hr to allow the agar surface to dry and pre-reduced for approximately 1 hr in the anaerobe chamber prior to inoculation. Each isolate was suspended to the equivalent of a 0.5 McFarland standard in Brucella broth using a turbidity meter (Dade Behring MicroScan, West Sacramento, CA). […] The MIC was read per CLSI guidelines (6).

The term MIC denotes the least concentration at which growth counts as inhibited.

`NCC[C@H](O)C(=O)N[C@@H]1C[C@H](N)[C@@H](O[C@H]2O[C@H](CN)[C@@H](O)[C@H](O)[C@H]2O)[C@H](O)[C@H]1O[C@H]1O[C@H](CO)[C@@H](O)[C@H](N)[C@H]1O` [Amikacin]: the MIC in test [1] was above 64 µg/mL.
In the case of `CCC[C@@H]1C[C@@H](C(=O)N[C@@H]([C@H]2O[C@H](SC)[C@H](O)[C@@H](O)[C@H]2O)[C@H](C)Cl)N(C)C1` [CLI], the “Mean MIC” value in test [2] was 8.00 µg/mL; in test [3], 8.00 µg/mL; in test [4], 0.25 µg/mL; in test [5], 1.00 µg/mL; in test [6] it was 8.00 µg/mL; in test [7], 8.00 µg/mL. Besides, the “Mean MIC” value in [8] is 0.25 µg/mL; in [9] it was 4.16 µg/mL; in test [10] it was 4.38 µg/mL; in test [11] it was 0.12 µg/mL; in [12], 0.03 µg/mL; in [13] it was 0.25 µg/mL. For the same compound, the “n (% resistant)” value in test [2] is 1 (100.0) n (%); in test [3], 1 (100.0) n (%); in test [4], 0 (0.0) n (%); in test [5], 1 (100.0) n (%); in [6], 1 (100.0) n (%); in [7] it was 1 (100.0) n (%). For the same compound, the “n (% resistant)” value in test [8] is recorded as 0 (0.0) n (%); in test [9], 1 (25.0) n (%); in [10], 2 (50.0) n (%); in [11], 0 (0.0) n (%); in test [12], 0 (0.0) n (%); in test [13], 0 (0.0) n (%).
Take `C[C@H]1COc2c(N3CCN(C)CC3)c(F)cc3c(=O)c(C(=O)O)cn1c23` [Levofloxacin]: the MIC in test [3] stood at 8 µg/mL; in [5], 0.25 µg/mL; in test [9], 8 µg/mL; in [11], 8 µg/mL; in test [12], 0.92 µg/mL; in test [13], 0.5 µg/mL. In addition, the “n (% resistant)” value in test [3] was 1 (100.0) n (%); in test [5], 0 (0.0) n (%); in [9], 4 (100.0) n (%); in test [11] it was 1 (100.0) n (%); in [12] it was 0 (0.0) n (%); in test [13] it was 0 (0.0) n (%).
As to `OCC(S)CS.[Bi]` (centres unmarked) [MB-2B, bismuth-2,3-dimercaptopropanol], in test [14], the MIC lay in the range of 2 to 16 µg/mL.
As for `C[C@@H](O)[C@H]1C(=O)N2C(C(=O)O)=C(S[C@@H]3CN[C@H](C(=O)N(C)C)C3)[C@H](C)[C@H]12` [Meropenem], the “n (% resistant)” value in test [2], in test [4], in test [6], in [7], in test [8] and in [10] was 0 (0.0) n (%) in each case. Further, the minimal inhibitory concentration (MIC) in test [2] (Lacrimispora sphenoides) worked out at 2 µg/mL; in test [4], 0.25 µg/mL; in test [6] it was 0.06 µg/mL; in test [7], 0.06 µg/mL; in test [8] it was 0.06 µg/mL; in [10], 0.06 µg/mL.
